Source: US9587266B2, “Mutant luciferases” (University of Massachusetts, priority 2011, dated 2017)
Values joined by “and” are separate entries in the source; they are usually repeats but may differ in a detail not shown here. Equal entries are not always repeated.

What was measured:
R218K luciferase [1] = target: T1, R218K luciferase (Photinus pyralis, UniProt P08659, R218K); assay: Small molecule luciferase inhibition assay; format: biochemical; conditions: inhibitor 2 or 20 μM, enzyme titration
T1 construct: The full firefly (Photinus pyralis) luciferase gene was PCR amplified from pGL3 (Promega); GST (N, cleaved yes); made in house; host or cells: E. coli JM109
T1 sequence (P08659 whole entry R218K): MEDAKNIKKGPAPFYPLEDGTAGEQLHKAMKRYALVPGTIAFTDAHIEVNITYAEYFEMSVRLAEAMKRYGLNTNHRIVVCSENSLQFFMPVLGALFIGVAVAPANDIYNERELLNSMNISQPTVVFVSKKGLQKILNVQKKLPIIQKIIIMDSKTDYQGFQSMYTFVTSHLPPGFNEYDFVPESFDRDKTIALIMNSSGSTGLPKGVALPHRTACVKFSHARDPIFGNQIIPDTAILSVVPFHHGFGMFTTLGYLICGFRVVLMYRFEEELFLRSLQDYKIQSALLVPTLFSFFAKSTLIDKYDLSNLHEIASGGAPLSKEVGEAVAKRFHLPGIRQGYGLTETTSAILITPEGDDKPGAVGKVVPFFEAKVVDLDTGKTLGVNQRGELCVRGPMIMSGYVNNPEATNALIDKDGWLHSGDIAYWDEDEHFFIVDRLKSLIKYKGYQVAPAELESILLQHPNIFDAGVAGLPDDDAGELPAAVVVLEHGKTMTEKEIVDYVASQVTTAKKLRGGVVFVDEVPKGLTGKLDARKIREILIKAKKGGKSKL
Experimental: Enzyme titration assays were performed under the same conditions, using 0 μM, 2 or 20 μM of the luciferase inhibitor 2-(4-methoxyphenyl)benzothiazole, a constant final luciferin substrate concentration of 20 μM, and serial 2-fold dilutions of luciferase concentration from 20 nM down to 0.01 nM.

WT luciferase [2] = target: T2, WT luciferase (Photinus pyralis, UniProt P08659); format: biochemical; conditions: WT luciferase treated with D-luciferin; inhibitor 2 or 20 μM, enzyme titration
T2 construct: The full firefly (Photinus pyralis) luciferase gene was PCR amplified from pGL3 (Promega); GST (N, cleaved yes); made in house; host or cells: E. coli JM109
T2 sequence (P08659 whole entry): as the sequence (P08659 whole entry R218K) above, with K218R counted along it
Experimental: Luminescence assays in 96-well plates were initiated by adding 30 μL 2× luciferin substrate in 20 mM Tris pH 7.4, 0.1 mM EDTA, 8 mM MgSO4, 4 mM ATP, and 1 mM TCEP to 30 μL of 20 nM purified luciferase in 20 mM Tris pH 7.4, 0.1 mM EDTA, 1 mM TCEP and 0.4 mg/mL BSA. Substrate titration assays were performed 3 minutes post-substrate addition in a Turner Veritas luminometer with final substrate concentrations ranging from 0.122-250 μM in the presence of 0 μM, 1 μM, or 10 μM of the luciferase inhibitor 2-(4-methoxyphenyl)benzothiazole. Enzyme titration assays were performed under the same conditions, using 0 μM, 2 or 20 μM of the luciferase inhibitor 2-(4-methoxyphenyl)benzothiazole, a constant final luciferin substrate concentration of 20 μM, and serial 2-fold dilutions of luciferase concentration from 20 nM down to 0.01 nM.

R218K luciferase [3] = target: T1, R218K luciferase; assay: Bioluminescence emission scan; format: biochemical
Experimental: (§1) Purified mutant luciferases were used in bioluminescence emission and burst kinetics scans.
(§2) Luciferase was rapidly injected into a cuvette containing substrate, and the emission from 400-800 nm was recorded in a SPEX FluoroMax-3 fluorimeter with closed excitation slits.

L286M + S347A luciferase = target: T3, L286M + S347A luciferase (Photinus pyralis, UniProt P08659, L286M/S347A); assay: Bioluminescence emission scan; format: biochemical
T3 construct: The full firefly (Photinus pyralis) luciferase gene was PCR amplified from pGL3 (Promega); GST (N, cleaved yes); made in house; host or cells: E. coli JM109
T3 sequence (P08659 whole entry L286M/S347A): as the sequence (P08659 whole entry R218K) above, with K218R, L286M, S347A counted along it
Experimental: as §1, §2

L342A luciferase = target: T4, L342A luciferase (Photinus pyralis, UniProt P08659, L342A); assay: Bioluminescence emission scan; format: biochemical
T4 construct: The full firefly (Photinus pyralis) luciferase gene was PCR amplified from pGL3 (Promega); GST (N, cleaved yes); made in house; host or cells: E. coli JM109
T4 sequence (P08659 whole entry L342A): as the sequence (P08659 whole entry R218K) above, with K218R, L342A counted along it
Experimental: as §1, §2

S347A luciferase = target: T5, S347A luciferase (Photinus pyralis, UniProt P08659, S347A); assay: Bioluminescence emission scan; format: biochemical
T5 construct: The full firefly (Photinus pyralis) luciferase gene was PCR amplified from pGL3 (Promega); GST (N, cleaved yes); made in house; host or cells: E. coli JM109
T5 sequence (P08659 whole entry S347A): as the sequence (P08659 whole entry R218K) above, with K218R, S347A counted along it
Experimental: as §1, §2

F247L L286M luciferase = target: T6, F247L L286M luciferase (Photinus pyralis, UniProt P08659, F247L/L286M); assay: Bioluminescence emission scan; format: biochemical
T6 construct: The full firefly (Photinus pyralis) luciferase gene was PCR amplified from pGL3 (Promega); GST (N, cleaved yes); made in house; host or cells: E. coli JM109
T6 sequence (P08659 whole entry F247L/L286M): as the sequence (P08659 whole entry R218K) above, with K218R, F247L, L286M counted along it
Experimental: as §1, §2

S347T luciferase = target: T7, S347T luciferase (Photinus pyralis, UniProt P08659, S347T); assay: Bioluminescence emission scan; format: biochemical
T7 construct: The full firefly (Photinus pyralis) luciferase gene was PCR amplified from pGL3 (Promega); GST (N, cleaved yes); made in house; host or cells: E. coli JM109
T7 sequence (P08659 whole entry S347T): as the sequence (P08659 whole entry R218K) above, with K218R, S347T counted along it
Experimental: as §1, §2

T251S L286M luciferase = target: T8, T251S L286M luciferase (Photinus pyralis, UniProt P08659, L286M/T251S); assay: Bioluminescence emission scan; format: biochemical
T8 construct: The full firefly (Photinus pyralis) luciferase gene was PCR amplified from pGL3 (Promega); GST (N, cleaved yes); made in house; host or cells: E. coli JM109
T8 sequence (P08659 whole entry T251S/L286M): as the sequence (P08659 whole entry R218K) above, with K218R, T251S, L286M counted along it
Experimental: as §1, §2

S347A mutant luciferase = target: T9, S347A mutant luciferase (Photinus pyralis, UniProt P08659, S347A); format: biochemical; conditions: purified protein
T9 construct: The full firefly (Photinus pyralis) luciferase gene was PCR amplified from pGL3 (Promega); GST (N, cleaved yes); made in house; host or cells: E. coli JM109
T9 sequence (P08659 whole entry S347A): as the sequence (P08659 whole entry R218K) above, with K218R, S347A counted along it
Experimental: (§3) The PCR product was cloned into the BamH1 and NotI sites of pGEX6P-1 for bacterial expression. Mutant proteins were created using the Quickchange site-directed mutagenesis kit (Stratagene). Saturating mutagenesis was performed using the used the degenerate codon NNK at sites predicted to impact or alter substrate biding including F247, T251, L286, S347, R337, R218, Q338, Y340, A313, and I351 using the degenerate codon NNK.
(§4) Luminescence assays in 96-well plates were initiated by adding 30 μL 2× substrate in 20 mM Tris pH 7.6, 0.1 mM EDTA, 8 mM MgSO4, 4 mM ATP, and 1 mM TCEP to 30 μL of 20 nM purified luciferase in 20 mM Tris pH 7.6, 0.1 mM EDTA, 1 mM TCEP and 0.4 mg/mL BSA.

R218K mutant luciferase = target: T10, R218K mutant luciferase (Photinus pyralis, UniProt P08659, R218K); format: biochemical; conditions: R218K luciferase, purified protein
T10 construct: The full firefly (Photinus pyralis) luciferase gene was PCR amplified from pGL3 (Promega); GST (N, cleaved yes); made in house; host or cells: E. coli JM109
T10 sequence (P08659 whole entry R218K): as the sequence (P08659 whole entry R218K) above
Experimental: as §3, §4

F247L mutant luciferase = F247L mutant luciferase (Photinus pyralis, UniProt P08659, F247L); conditions: F247L mutant relative to wild-type luciferase
Chain of F247L mutant luciferase (P08659 whole entry F247L): as the sequence (P08659 whole entry R218K) above, with K218R, F247L counted along it
Experimental: (§5) The PCR product was cloned into the BamH1 and NotI sites of pGEX6P-1 for bacterial expression. Mutant proteins were created using the Quickchange site-directed mutagenesis kit (Stratagene). Saturating mutagenesis was performed using the used the degenerate codon NNK at sites predicted to impact or alter substrate biding including F247, T251, L286, S347, R337, R218, Q338, Y340, A313, and I351 using the degenerate codon NNK. The point mutants S347A, L286A, A348G, E311A, I351A, A313G, R337A, H245A and L342A were made independently.
(§6) Luminescence assays in 96-well plates were initiated by adding 30 μL 2× substrate in 20 mM Tris pH 7.6, 0.1 mM EDTA, 8 mM MgSO4, 4 mM ATP, and 1 mM TCEP to 30 μL of 20 nM purified luciferase in 20 mM Tris pH 7.6, 0.1 mM EDTA, 1 mM TCEP and 0.4 mg/mL BSA. Titration assays were performed 3 minutes post-substrate addition in a Turner Veritas luminometer with final substrate concentrations ranging from 0.122-250 μM or 0.244-500 μM.

L286M mutant luciferase = target: T11, L286M mutant luciferase (Photinus pyralis, UniProt P08659, L286M); assay: Titration assay with purified protein; format: biochemical
T11 construct: The full firefly (Photinus pyralis) luciferase gene was PCR amplified from pGL3 (Promega); GST (N, cleaved yes); made in house; host or cells: E. coli JM109
T11 sequence (P08659 whole entry L286M): as the sequence (P08659 whole entry R218K) above, with K218R, L286M counted along it
Experimental: as §3, §4

T251S mutant luciferase = target: T12, T251S mutant luciferase (Photinus pyralis, UniProt P08659, T251S); assay: Titration assay with purified protein; format: biochemical
T12 construct: The full firefly (Photinus pyralis) luciferase gene was PCR amplified from pGL3 (Promega); GST (N, cleaved yes); made in house; host or cells: E. coli JM109
T12 sequence (P08659 whole entry T251S): as the sequence (P08659 whole entry R218K) above, with K218R, T251S counted along it
Experimental: as §3, §4

WT luciferase [4] = target: T2, WT luciferase; format: biochemical
Experimental: (§7) Purified mutant luciferases were used in bioluminescence emission and burst kinetics scans. Each purified protein in 20 mM Tris pH 7.6, 0.1 mM EDTA, 1 mM TCEP and 0.4 mg/mL BSA was added to 2× substrate in 20 mM Tris pH 7.6, 0.1 mM EDTA, 8 mM MgSO4, 4 mM ATP, and 1 mM TCEP in a cuvette.
as §2

R218K + L342A luciferase = target: T13, R218K + L342A luciferase (Photinus pyralis, UniProt P08659, L342A/R218K); format: biochemical
T13 construct: The full firefly (Photinus pyralis) luciferase gene was PCR amplified from pGL3 (Promega); GST (N, cleaved yes); made in house; host or cells: E. coli JM109
T13 sequence (P08659 whole entry R218K/L342A): as the sequence (P08659 whole entry R218K) above, with L342A counted along it
Experimental: as §7, §2

WT luciferase [5] = target: T2, WT luciferase; assay: Titration assay with purified protein; format: biochemical
Experimental: as §5, §6

SMILES | effect of luciferase inhibitor on light output (R218K luciferase [1]; R218K luciferase treated with D-luciferin) | effect of luciferase inhibitor on light output (R218K luciferase [1]; R218K luciferase with CycLuc2 as substrate) | effect of luciferase inhibitor on light output (WT luciferase [2]) | Maximum Emission Wavelength of Selected Substrate (R218K luciferase [3]) | Maximum Emission Wavelength of Selected Substrate (L286M + S347A luciferase) | Maximum Emission Wavelength of Selected Substrate (L342A luciferase) | Wavelength at Max. Emission (S347A luciferase) | Wavelength at Max. Emission (F247L L286M luciferase) | Wavelength at Max. Emission (S347T luciferase) | Wavelength at Max. Emission (T251S L286M luciferase) | Apparent Vmax (S347A mutant luciferase) | Apparent Vmax (R218K mutant luciferase) | improvement of maximal sustained light emission (F247L mutant luciferase) | Apparent Vmax (L286M mutant luciferase) | Apparent Vmax (T251S mutant luciferase) | Wavelength at Max. Emission (WT luciferase [4]; Table 2) | Maximum Emission Wavelength of Selected Substrate (WT luciferase [4]; Table 3) | Maximum Emission Wavelength of Selected Substrate (R218K + L342A luciferase) | Apparent Vmax (WT luciferase [5])
COc1ccc(-c2nc3ccccc3s2)cc1 [2-(4-methoxyphenyl)-benzothiazole, 2-(4-methoxyphenyl)benzothiazole] | strongly inhibited | largely unaffected | strongly inhibited | – | – | – | – | – | – | – | – | – | – | – | – | – | – | – | –
Nc1ccc2nc(C3=N[C@@H](C(=O)O)CS3)sc2c1 [6′-NH2LH2, 6′-aminoluciferin] | – | – | – | 599 nm | 589 nm | 591 nm | 591 nm | 592 nm | 583 nm | 602 nm | 91 ± 0.4 ×10^−5 cps | 157 ± 3.7 ×10^−5 cps | 4.9 fold and > 5 fold | 62 ± 0.7 ×10^−5 cps | 51 ± 0.3 ×10^−5 cps | 595 nm | 594 nm | 594 nm | 35 ± 0.25 ×10^−5 cps
